{"source": "patent US20250269049A1", "about": "“CD20-TARGETED ANTIBODY COUPLING PHARMACEUTICAL PREPARATION” (priority 2017, published 2025)", "key": {"[1]": {"test_system": "Ramos cells", "test": "In vitro cytotoxicity assay (CCK-8)", "type": "cell-based", "details": "about 72 hours incubation, parallel detections 1 and 2", "description": "Experiment 2: In vitro Cytotoxicity Assay\nFBS, purchased from Lonsera, product number S711-001S;\nStreptomycin/Penicillin Dual Antibody, purchased from HyClone, Lot: SV30010;\nDPBS (Dulbecco's Phosphate Buffer Solution) was purchased from Gibco, product number 14190-136;\nCCK-8 reagent, purchased from Biolite, product number 35004.\nRamos cells were purchased from COBIOER BIOSCIENCES CO., LTD.\nCell culture and plating: Ramos cells with viability greater than 80% in the logarithmic growth phase up to 30 generations were selected for the experiment. Ramos cells were removed from culture flasks and added to 50 mL centrifuge tubes and blown to mix. 1000 rpm (≈188g) centrifugation was performed for 5-6 minutes. The supernatant was discarded and the cells were resuspended with the appropriate volume of diluent. […]\nPlate reading: Load the plate into the enzyme labeling instrument and read the plate with 450 nm as the reading wavelength and 650 nm as the reference wavelength.\nData processing: The IC50 value was calculated using a four-parameter fitting model with the concentration value as the horizontal coordinate and the difference between the absorbance value at 450 nm minus the absorbance value at 650 nm as the vertical coordinate."}, "[2]": {"test_system": "Raji cells", "test": "Internalization efficacy by flow cytometry, Raji cells", "type": "cell-based", "details": "10 μg/mL, 37° C. 2 h, FIG. 2D", "method": "(§1) Experiment 1: Method for Internalization Efficacy of Antibody-Drug Conjugate (TRS005) by Flow Cytometry\n(§2) Cell preparation: take logarithmic growth phase Raji cells or Ramos cells, centrifuge at 1000 rpm for 5 minutes, resuspend using DPBS, adjust the density of live cells to 2×10^6 cells/mL, and divide into 1.5 mL centrifuge tubes, 1 mL/tube.\n(§3) Sample dilution: The sample to be tested (TRS005 with a DAR of approximately 4.2) was diluted to 1000 μg/mL, 10 μL was added to each 1 mL of cell suspension, and blown and mixed to make the final concentration of the sample 10 μg/mL.\n(§4) Incubation the cell suspension to which the samples were added was placed on ice and ice-bath for 30 minutes. […]\n(§5) Cells from the negative control group treated with ice bath were gating and the average fluorescence intensity of cells in each tube at FL1 was recorded. […]\n(§6) The percentage of endocytosis of the samples was calculated based on the average fluorescence intensity according to the following formula.\n(§7) Internalization efficacy ratio %=(mean fluorescence intensity of negative control group−mean fluorescence intensity of experimental group)/mean fluorescence intensity of negative control group×100%."}, "[3]": {"test_system": "Ramos cells", "test": "Internalization efficacy by flow cytometry, Ramos cells", "type": "cell-based", "details": "10 μg/mL, 37° C. 2 h, FIG. 2C", "method": "as §1, §2, §3, §4, §5, §6, §7"}, "[4]": {"test_system": "Daudi cell xenografts tumor", "test": "In vivo anti-tumor activity test, Daudi graft tumor", "design": "species or system BALB/c nude mice", "details": "tail vein, 6 injections over 21 days, two batches (first and second), listed as TRS005", "description": "Experiment 3 In vivo Anti-Tumor Activity Test\n1. Test animals and housing environment\nSpecies: BALB/c nude mice\nGender of animals: male mice.\nAge at acquisition: 6-8 weeks; Body weight at the beginning of the experiment: 18˜20 g.\nHousing environment: SPF grade.\nDaudi cells were purchased from the cell bank of the Type Culture Collection of the Chinese Academy of Sciences.\n3. TEST SAMPLE: The Test Sample was Selected From Two Batches of the Product Prepared in Example 2.\nUnder aseptic conditions of 5% CO2 and 37° C., Daudi cells were cultured with PRMI1640 medium containing 10% fetal bovine serum, respectively, and expanded to 5.0×10^8 cells. Cells were collected by centrifugation and mixed 1:1 with Matrix gel and inoculated subcutaneously into the right side of the rib cage of BALB/c nude mice at 1×10^7 cells/200 μl/animal.\nWhen the mean tumor volume reached 100 mm3, the group was randomized: […]\nThere were 10 nude mice in each group. Then the administration of the drug was started by tail vein administration, and the body weight of BALB/c nude mice and the long and short diameters of the tumors were measured, and recorded during the administration. […]\nTumor volume and Tumor weight were expressed as Mean±Standard Error of the Mean (Mean±SEM). Statistical tests were analyzed by one-way analysis of variance (ANOVA), with p<0.05 considered significant and p<0.01 considered highly significant."}}, "note": "Where “and” joins values, the source holds several entries; their conditions need not be identical. Identical values can stand only once."}
{"substance": "Example 2: Anti-CD20 antibody TRS001 (rituximab biosimilar) conjugated to MMAE via maleimidocaproyl-valine-citrulline-p-aminobenzyloxycarbonyl linker; preferred DAR distribution", "values": [{"measurement": "IC50", "setting": "[1]", "result": "0.0589 µg/mL and 0.0648 µg/mL"}, {"measurement": "internalization efficacy", "setting": "[2]", "result": "good internalization efficacy"}, {"measurement": "internalization efficacy", "setting": "[3]", "result": "good internalization efficacy"}, {"measurement": "tumor inhibition rate", "setting": "[4]; 0.75 mg/kg", "result": "91.08% and 92.09%"}, {"measurement": "tumor inhibition rate", "setting": "[4]; 1.5 mg/kg", "result": "97.15% and 97.71%"}]}
